Read-outs that look alike come from different tables or passages of the source.

The results in this text go back to patent US11370794B2, “Toll-like receptor antagonist compounds and methods of use” (Dynavax Technologies Corporation, priority 2016, dated 2022).

In one data set the target is T1, human TLR7 (Homo sapiens, UniProt Q9NYK1).
T1 construct: Human plasmacytoid dendritic cells were plated into 96 well plates; endogenous in cells; host or cells: primary human plasmacytoid dendritic cells from buffy coats of healthy donors
T1 sequence (Q9NYK1 27-1049): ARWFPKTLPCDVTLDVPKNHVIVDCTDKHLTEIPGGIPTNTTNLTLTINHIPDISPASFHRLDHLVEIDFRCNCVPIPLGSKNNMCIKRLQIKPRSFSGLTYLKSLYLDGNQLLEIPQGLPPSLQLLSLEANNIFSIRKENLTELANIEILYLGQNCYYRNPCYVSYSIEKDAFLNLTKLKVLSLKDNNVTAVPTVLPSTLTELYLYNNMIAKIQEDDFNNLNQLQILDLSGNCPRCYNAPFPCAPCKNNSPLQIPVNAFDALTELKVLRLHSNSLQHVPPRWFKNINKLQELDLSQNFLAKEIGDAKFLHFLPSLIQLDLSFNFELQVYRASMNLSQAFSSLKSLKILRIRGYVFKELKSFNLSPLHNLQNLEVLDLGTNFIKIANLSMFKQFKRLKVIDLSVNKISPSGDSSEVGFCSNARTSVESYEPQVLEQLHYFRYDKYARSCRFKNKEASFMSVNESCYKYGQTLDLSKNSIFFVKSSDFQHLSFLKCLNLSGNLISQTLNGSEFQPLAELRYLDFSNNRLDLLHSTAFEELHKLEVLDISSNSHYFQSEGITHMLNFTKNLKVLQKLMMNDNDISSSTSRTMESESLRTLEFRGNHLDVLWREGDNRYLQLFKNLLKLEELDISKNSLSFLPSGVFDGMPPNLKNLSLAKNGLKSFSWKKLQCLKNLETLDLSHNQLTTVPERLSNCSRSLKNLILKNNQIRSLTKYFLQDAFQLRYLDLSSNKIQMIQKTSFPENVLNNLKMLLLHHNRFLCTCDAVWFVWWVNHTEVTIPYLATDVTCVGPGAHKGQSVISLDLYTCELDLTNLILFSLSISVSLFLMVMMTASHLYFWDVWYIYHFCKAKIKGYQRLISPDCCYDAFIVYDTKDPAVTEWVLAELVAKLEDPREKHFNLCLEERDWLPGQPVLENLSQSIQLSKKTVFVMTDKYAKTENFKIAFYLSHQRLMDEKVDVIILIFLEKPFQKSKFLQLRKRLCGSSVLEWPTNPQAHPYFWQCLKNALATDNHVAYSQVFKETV
The data set is described as follows: Inhibition of human TLR7 in human plasmacytoid dendritic cells (interferon-alpha ELISA). In kind it is cell-based. The settings on record: agonist heat inactivated influenza virus, 24 hours. Background: ELISA stands for enzyme-linked immunosorbent assay.

The target of a further data set is T2, human TLR8 (Homo sapiens, UniProt Q9NR97).
T2 construct: endogenous in cells; host or cells: primary human monocytes (CD14 microbeads) from buffy coats of healthy donors
T2 sequence (Q9NR97 27-1041): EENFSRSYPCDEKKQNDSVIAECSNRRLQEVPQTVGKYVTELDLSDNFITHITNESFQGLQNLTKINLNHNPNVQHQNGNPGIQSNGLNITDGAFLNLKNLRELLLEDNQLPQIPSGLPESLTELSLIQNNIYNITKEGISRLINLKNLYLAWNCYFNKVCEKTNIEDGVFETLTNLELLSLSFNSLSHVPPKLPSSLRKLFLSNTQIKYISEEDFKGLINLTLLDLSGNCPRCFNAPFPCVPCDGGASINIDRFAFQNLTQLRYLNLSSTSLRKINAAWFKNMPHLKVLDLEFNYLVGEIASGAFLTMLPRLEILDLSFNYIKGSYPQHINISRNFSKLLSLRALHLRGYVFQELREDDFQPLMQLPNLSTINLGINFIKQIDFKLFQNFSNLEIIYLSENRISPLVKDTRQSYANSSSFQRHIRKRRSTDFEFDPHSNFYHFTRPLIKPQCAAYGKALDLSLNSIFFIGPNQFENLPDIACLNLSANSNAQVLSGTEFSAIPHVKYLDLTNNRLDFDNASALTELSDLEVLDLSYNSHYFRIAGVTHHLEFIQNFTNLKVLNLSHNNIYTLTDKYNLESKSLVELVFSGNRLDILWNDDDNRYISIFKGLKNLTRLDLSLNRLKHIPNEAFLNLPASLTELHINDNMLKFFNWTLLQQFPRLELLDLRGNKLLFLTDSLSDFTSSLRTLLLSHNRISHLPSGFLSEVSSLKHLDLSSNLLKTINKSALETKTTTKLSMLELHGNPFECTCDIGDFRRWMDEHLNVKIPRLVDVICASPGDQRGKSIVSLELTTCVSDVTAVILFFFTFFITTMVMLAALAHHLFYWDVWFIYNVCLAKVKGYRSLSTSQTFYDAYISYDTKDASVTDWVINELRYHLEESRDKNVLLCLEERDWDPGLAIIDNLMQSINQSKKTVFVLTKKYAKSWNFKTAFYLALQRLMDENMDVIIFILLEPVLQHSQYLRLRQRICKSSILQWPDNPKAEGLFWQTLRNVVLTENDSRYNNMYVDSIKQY
The data set is described as follows: Inhibition of human TLR8 in human monocytes (TNF-alpha / IL-1 beta ELISA). Type of data set: cell-based. Particulars: for IC50: human monocytes, agonist ORN8L 100 μg/mL, 24 hours; for inhibits TLR8-dependent responses (in words): summary statement of the description. The method in brief: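 Primary human monocytes from donor buffy coats (~200,000 cells/well) given serially diluted compound, then ORN8L RNA oligonucleotide agonist at 100 μg/mL final. After 24 h at 37 °C, supernatant TNF-alpha and/or IL-1 beta measured by ELISA; IC50 from the concentration-response of cytokine release.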

The nature of data set [1]: Metabolic stability in human liver microsomes. The settings on record: 0.5 mg/mL microsomal protein, 1.5 μM compound, 37° C.; for half-life at 1.5 μM: 0-45 minutes, read-out: T1/2 in human liver microsomes. Type of data set: in vitro ADME. How it is done: Example B7—Metabolic Stability
The stability of compounds in human liver microsomes was tested. Human liver microsomes (from BD Gentest) were spiked with compounds to a final liver microsomal protein concentration of 0.5 mg/mL and a final compound concentration of 1.5 μM. Samples were incubated for 0, 5, 15, 30, 45 minutes at 37° C. The reaction was stopped by the addition of acetonitrile. An aliquot of the stopped reaction was mixed with ultra-pure water (Millipore, ZMQS50F01) and analyzed by liquid chromatography/electrospray ionization mass spectroscopy.
(In general: Microsomes from liver hold many membrane-bound enzymes, among them those of drug oxidation.)

The mark [2] stands for this setting: IL-1 beta readout, read-out: Human TLR8 IC50 IL-1b.
Setting [3] is: TNF-alpha readout, read-out: Human TLR8 IC50 TNF-a.

As a reminder, the IC50 is the midpoint of a concentration-inhibition curve. Take `Cc1ccc(-n2nc3c(N4CCC(CCC(=O)NCCN(C)C)CC4)nnc(C)c3c2C)cc1` [Compound No. 9, 3-(1-(3,4-dimethyl-2-(p-tolyl)-2H-pyrazolo[3,4-d]pyridazin-7-yl)piperidin-4-yl)-N-(2-(dimethylamino)ethyl)propanamide]: the values for the IC50 at human TLR7, at human TLR8 (setting [2]) and on human TLR8 (setting [3]) were > 10 µM, 5.02 µM and 1.22 µM, respectively.
`Cc1ccc(-n2nc3c(N4CCC(C(=O)NCCCc5c[nH]cn5)CC4)nnc(C)c3c2C)cc1` [Compound No. 6, N-(3-(1H-imidazol-4-yl)propyl)-1-(3,4-dimethyl-2-(p-tolyl)-2H-pyrazolo[3,4-d]pyridazin-7-yl)piperidine-4-carboxamide]: the IC50 at human TLR7 was > 10 µM; on human TLR8 (setting [2]), > 10 µM; on human TLR8 (setting [3]) it was 6.68 µM.
By CLint scaled is commonly meant a measure of how fast metabolising enzymes remove a compound, apart from limits set by blood flow. A higher CLint scaled goes with rapid turnover. In the case of `Cc1ccc(-n2nc3c(N4CCC(C(=O)NCCCN(C)Cc5ccccc5)CC4)nnc(C)c3c2C)cc1` [Compound No. 1, N-(3-(benzyl(methyl)amino)propyl)-1-(3,4-dimethyl-2-(p-tolyl)-2H-pyrazolo[3,4-d]pyridazin-7-yl)piperidine-4-carboxamide], the IC50 on human TLR7 stood at 2.97 µM; on human TLR8 (setting [2]), 0.74 µM; at human TLR8 (setting [3]) it was 0.62 µM. For the same compound, at human TLR8, the “inhibits TLR8-dependent responses (in words)” value is on record as “inhibit”. The CLint scaled at 1.5 μM in data set [1] turned out to be 347 mL/min/kg. In addition, the half-life at 1.5 μM in data set [1] is 0.0833 h.
As for `Cc1ccc(-n2nc3c(N4CCC(C(=O)NCCCN(C)C)CC4)nnc(C)c3c2C)cc1` [Compound No. 5, 1-(3,4-dimethyl-2-(p-tolyl)-2H-pyrazolo[3,4-d]pyridazin-7-yl)-N-(3-(dimethylamino)propyl)piperidine-4-carboxamide], the IC50 at human TLR7 was 2.23 µM; at human TLR8 (setting [2]), > 10 µM; at human TLR8 (setting [3]), > 10 µM. In data set [1], this compound showed a CLint scaled at 1.5 μM of 2.2 mL/min/kg. In addition, in data set [1], the half-life at 1.5 μM stood at 13.3 h.
`Cc1ccc(-n2nc3c(N4CCC(C(=O)NC5CN(C)C5)CC4)nnc(C)c3c2C)cc1` [Compound No. 3, 1-(3,4-dimethyl-2-(p-tolyl)-2H-pyrazolo[3,4-d]pyridazin-7-yl)-N-(1-methylazetidin-3-yl)piperidine-4-carboxamide]: the 50% inhibitory concentration (IC50) at human TLR8 (setting [2]) and on human TLR8 (setting [3]) was > 10 µM throughout. Further, the CLint scaled at 1.5 μM in data set [1] came to 4.5 mL/min/kg. In data set [1], the half-life at 1.5 μM was 6.4 h.
In the case of `Cc1ccc(-n2nc3c(N4CCC(C(=O)N5CCN(Cc6ccccc6)CC5)CC4)nnc(C)c3c2C)cc1` [Compound No. 2, (4-benzylpiperazin-1-yl)(1-(3,4-dimethyl-2-(p-tolyl)-2H-pyrazolo[3,4-d]pyridazin-7-yl)piperidin-4-yl)methanone], the 50% inhibitory concentration (IC50) at human TLR7 came to 9.93 µM; at human TLR8 (setting [2]) it was 0.9 µM; on human TLR8 (setting [3]), 0.67 µM. Moreover, the “inhibits TLR8-dependent responses (in words)” value against human TLR8 is “inhibit”.
`Cc1ccc(-n2nc3c(N4CCC(C(=O)NCC(C)(C)CNc5ccccc5)CC4)nnc(C)c3c2C)cc1` [2-1]: the IC50 at human TLR7 was > 10 µM; at human TLR8 (setting [2]) it was 9.92 µM; at human TLR8 (setting [3]), 9.77 µM.
`Cc1ccc(-n2nc3c(N4CCC(C(=O)NC5CN(Cc6ccccc6)C5)CC4)nnc(C)c3c2C)cc1` [Compound No. 4, N-(1-benzylazetidin-3-yl)-1-(3,4-dimethyl-2-(p-tolyl)-2H-pyrazolo[3,4-d]pyridazin-7-yl)piperidine-4-carboxamide]: the IC50 turned out to be 3.36 µM at human TLR7, 1.01 µM at human TLR8 (setting [2]) and 0.77 µM on human TLR8 (setting [3]). Also, on human TLR8, the “inhibits TLR8-dependent responses (in words)” value is on record as “inhibit”.
